Measured values: ChEMBL document CHEMBL3784964, “Targeting the trehalose utilization pathways of Mycobacterium tuberculosis” (Medchemcomm, 2016)
Converted amounts (≈) assume the structure as drawn.

Tests used:
[1] = tested on: Mycobacterium tuberculosis; experiment: Antimycobacterial activity against Mycobacterium tuberculosis H37Rv; format: functional
[2] = tested on: Mycobacterium tuberculosis; experiment: Antimycobacterial activity against Mycobacterium tuberculosis H37Ra ATCC 25177; format: functional
[3] = tested on: Mycobacterium tuberculosis; experiment: Antimycobacterial activity against Mycobacterium tuberculosis incubated for 96 hrs by resazurin microtiter assay; format: functional
[4] = Inhibition of recombinant Mycobacterium tuberculosis H37Rv N-terminal His-tagged glgE expressed in Escherichia coli T7 Rosetta cells using MESG as substrate measured every 5 sec for 10 mins by PNP enzyme coupled assay
[5] = Inhibition of Mycobacterium tuberculosis antigen 85C acyltransferase activity preincubated with enzyme by UV-vis spectrophotometric analysis
[6] = Inhibition of Mycobacterium tuberculosis antigen 85C mycolyltransferase activity incubated for 30 mins by scintillation counting method in presence of [14C]-trehalose
[7] = Inhibition of Mycobacterium tuberculosis antigen 85C mycolyltransferase activity using trehalose as substrate measured every 20 sec for 30 mins by 4-methylumbelliferyl butyrate fluorescence assay
[8] = tested on: Mycobacterium tuberculosis; experiment: Antimycobacterial activity against Mycobacterium tuberculosis H37Rv by microdilution method; format: functional
[9] = tested on: Mycobacterium tuberculosis; experiment: Inhibition of Mycobacterium tuberculosis antigen 85C mycolyltransferase activity at 100 ug/ml incubated for 30 mins by scintillation counting method in presence of [14C]-trehalose relative to control
[10] = Competitive inhibition of recombinant Mycobacterium smegmatis trehalose synthase using DNPGlc as substrate by Dixon plot analysis; set-up: species or system Mycolicibacterium smegmatis
[11] = tested on: Mycobacterium tuberculosis; experiment: Antimycobacterial activity against Mycobacterium tuberculosis H37Rv by 2-fold broth dilution method; format: functional
[12] = tested on: Mycobacterium tuberculosis; experiment: Antimycobacterial activity against Mycobacterium tuberculosis H37Rv mc26206 incubated for 96 hrs by resazurin microtiter assay; format: functional; conditions: H37Rv mc26206, 96 h

In the case of `O=C(Nc1ccc(F)c(F)c1F)NC12CC3CC(CC(C3)C1)C2`, the MIC [1] is reported as 0.5 µg/mL.

`CCCCC(CC)CNC[C@H]1O[C@H](O[C@H]2O[C@H](CNCC(CC)CCCC)[C@@H](O)[C@H](O)[C@H]2O)[C@H](O)[C@@H](O)[C@@H]1O` (stereo partly drawn) showed an MIC [2] of 32 µg/mL (≈ 56.7 µM).

For `CCCC1CCc2c(sc(N)c2C#N)C1` (stereo not drawn), the MIC [3] was 100 µM (≈ 22 µg/mL).

Compound `OC[C@H]1N[C@H](CO)[C@@H](O[C@H]2O[C@H](CO)[C@@H](O)[C@H](O)[C@H]2O)[C@@H]1O` has a Ki [4] of 237 µM.

For `COC(=O)CC[C@H]1O[C@@H](OC)[C@@H](O)[C@@H]1O`, the IC50 [5] was 25 mM.

For `CCCCCCCCS(=O)(=O)OCCN1C(=O)c2ccccc2C1=O`, the IC50 [6] was 4.3 µM.

With `CCOC(=O)c1c(NC(=O)SC[C@H]2O[C@@H](O)[C@@H](O)[C@@H]2O)sc2c1CCCC2` the Ki [7] was 18.2 µM.

`CN1CCN(Cc2cc(-c3ccc(Cl)cc3)n(-c3ccc(Cl)cc3)c2-c2ccccc2)CC1` showed an MIC [1] of 1.5 µg/mL.

In the case of `CCCn1cnc2cc(NCc3ccc(Cl)cc3Cl)ccc21`, the MIC [1] is reported as 16 µM.

`CCOC(=O)c1c(NC(=O)c2c(F)c(F)c(F)c(F)c2F)sc(C(N)=O)c1C` gave an MIC [8] of 0.5 µM (≈ 0.211 µg/mL).

With `COC(=O)c1c(NC(=O)c2c(F)c(F)c(F)c(F)c2F)sc2c1CCCCC2` the MIC [8] was 1 µM (≈ 0.419 µg/mL).

For `CCCCCCCCCCNC[C@H]1O[C@H](O[C@H]2O[C@H](CNCCCCCCCCCC)[C@@H](O)[C@H](O)[C@H]2O)[C@H](O)[C@@H](O)[C@@H]1O`, the MIC [2] was 1.3 µg/mL (≈ 2.09 µM).

`[N-]=[N+]=NC[C@H]1O[C@H](O[C@H]2O[C@H](CO)[C@@H](O)[C@H](O)[C@H]2O)[C@H](O)[C@@H](O)[C@@H]1O` showed an inhibition [9] of 60%.

`OC[C@H]1NC[C@H](O)[C@@H](O)[C@@H]1O` [DUVOGLUSTAT] gave a Ki [10] of 250 nM.

With `c1ccc(CNC23CC4CC(CC(C4)C2)C3)cc1` the MIC [8] was 10 µM (≈ 2.41 µg/mL).

Work on `CCCCCCCCS(=O)(=O)NC[C@H]1O[C@H](O[C@H]2O[C@H](CNS(=O)(=O)CCCCCCCC)[C@@H](O)[C@H](O)[C@H]2O)[C@H](O)[C@@H](O)[C@@H]1O` yielded an MIC [2] of 16 µg/mL (≈ 23.1 µM).

`O=C(Nc1ccccc1)O/N=C1\N[C@H](CO)[C@@H](O)[C@H](O)[C@H]1O` showed a Ki [10] of 2100 nM.

Work on `CCCCCCCCNC[C@H]1O[C@H](O[C@H]2O[C@H](CNCCCCCCCC)[C@@H](O)[C@H](O)[C@H]2O)[C@H](O)[C@@H](O)[C@@H]1O` yielded an MIC [2] of 4 µg/mL (≈ 7.08 µM).

For `CCCCCCCCCCCCNC[C@H]1O[C@H](O[C@H]2O[C@H](CNCCCCCCCCCCCC)[C@@H](O)[C@H](O)[C@H]2O)[C@H](O)[C@@H](O)[C@@H]1O`, the MIC [2] was 8 µg/mL (≈ 11.8 µM).

With `OC[C@@H]1[C@@H](O)[C@H](O)C2[C@H](O)[C@@H](O)CN21` (stereo partly drawn) the Ki [10] was 2500 nM.

Compound `CC(C)=CCC/C(C)=C/CNCCNC1C2CC3CC(C2)CC1C3` (stereo not drawn) [SQ109] has an MIC [11] of 1.5 µg/mL (≈ 4.54 µM).

In the case of `CCc1sc(NC(=O)c2c(F)c(F)c(F)c(F)c2F)c(C(=O)OC(C)C)c1C`, the MIC [8] is reported as 1 µM (≈ 0.421 µg/mL).

Compound `O=c1c2ccccc2[se]n1-c1ccccc1` [EBSELEN] has an MIC [12] of 20 µg/mL (≈ 72.9 µM).
